Experimental data from ChEMBL document CHEMBL1201862, “PubChem BioAssay data set” (2004).
Activity calls are given as the source filed them. Cut-off read from the data, not from the text of the source: actives have a measured IC50 and inactives only a lower limit.

Molecular target: Envelope glycoprotein gp160 (Human immunodeficiency virus 1, UniProt Q6QLK5)
Test: cell-free HIV fusion peptide-binding blockers – biochemical, uHTS, fluorescence dequenching, […] (AID 1986)

Chain of Envelope glycoprotein gp160 (Q6QLK5 whole entry, the tested form may be a part): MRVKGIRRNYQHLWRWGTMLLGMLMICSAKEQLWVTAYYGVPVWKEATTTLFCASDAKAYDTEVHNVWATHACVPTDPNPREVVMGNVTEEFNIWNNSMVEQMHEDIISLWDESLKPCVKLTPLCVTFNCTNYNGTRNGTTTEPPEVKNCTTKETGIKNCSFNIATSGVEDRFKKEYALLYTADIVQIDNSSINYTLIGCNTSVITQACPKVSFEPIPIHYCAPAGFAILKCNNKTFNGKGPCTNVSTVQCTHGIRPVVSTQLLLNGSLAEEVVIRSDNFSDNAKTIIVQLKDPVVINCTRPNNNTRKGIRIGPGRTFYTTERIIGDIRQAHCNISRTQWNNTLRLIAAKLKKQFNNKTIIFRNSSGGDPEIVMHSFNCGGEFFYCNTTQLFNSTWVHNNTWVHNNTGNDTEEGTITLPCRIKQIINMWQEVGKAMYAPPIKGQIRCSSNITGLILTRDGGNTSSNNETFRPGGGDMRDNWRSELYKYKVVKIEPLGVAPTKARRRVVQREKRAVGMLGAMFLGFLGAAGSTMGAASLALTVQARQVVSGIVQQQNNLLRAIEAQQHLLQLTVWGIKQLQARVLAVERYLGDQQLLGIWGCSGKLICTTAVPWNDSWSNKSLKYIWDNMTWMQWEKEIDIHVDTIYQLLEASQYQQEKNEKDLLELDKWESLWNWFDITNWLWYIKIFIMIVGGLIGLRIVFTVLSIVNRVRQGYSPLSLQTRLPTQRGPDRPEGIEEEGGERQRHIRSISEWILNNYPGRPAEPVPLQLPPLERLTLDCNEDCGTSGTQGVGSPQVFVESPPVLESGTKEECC

SMILES | IC50
Cc1ccc(NC(=O)COc2cccc(/C=C3\SC(=S)N(CCC(=O)O)C3=O)c2)cc1Cl | 12.2 µM (active)
NC(=O)Cn1cc(C=C2C(=O)NC(=O)NC2=O)c2ccccc21 | 69.2 µM (active)
